Assay results from patent publication US9814758B2, “Inhibitors of apoptosis and uses thereof” (CENTRE NATIONAL DE LA RECHERCHE SCIENTIFIQUE-CNRS, priority 2010, dated 2017).
Non-standard residues stand in square brackets, D forms with d. No end group written: not given here. Ahx = NCCCCCC(=O)O; βAla = NCCC(=O)O

Experiments:
primary cardiomyocytes = test: STS-induced DNA fragmentation (Cell Death detection ELISA PLUS) in primary cardiomyocytes; assay type: cell-based, mouse; details: for anti-apoptotic effect compared with Tat-DAXXp: primary cardiomyocytes, against STS; for decrease in apoptosis: cardiomyocytes, STS + 1 μM peptide, FIG. 9
Description: (§1) FIG. 5: In vitro evaluation of the anti-apoptotic activity of CPPs and CPP-conjugates. Workflow and quantitation of DNA fragmentation in (A) C2C12 cells, (B) primary cardiomyocytes, (C) H9c2 cells and (D) NG108-15 cells. Data were normalized to 100% STS. Data shown are the means±SEM, with n≧5. Cells were seeded in 24-well plates and grown overnight. The next day, the cells were incubated with STS alone or with STS+1 μM peptide (in OPTI-MEM) (OPTI-MEM® is a modification of Eagle's Minimum Essential Media, buffered with HEPES and sodium bicarbonate, and supplemented with hypoxanthine, thymidine, sodium pyruvate, L-glutamine, trace elements, and growth factors) (STS concentration and incubation time for each cells are given in the figure). Thereafter, solutions were removed, replaced by complete medium and further incubated for 40 h. Following the regeneration phase, the cells were lyzed and DNA fragmentation was detected according to manufacturer's instructions (Cell Death detection ELISA^PLUS kit—Roche Diagnostics).
FIG. 6: Anti-apoptotic activity of variants of the Tat-DAXXp sequence on primary cardiomyocytes. As described in the caption of FIG. 5, the different analogues of the DAXXp sequence (see Table 2) were assessed for anti-apoptotic properties against STS (Cell Death detection ELISA^PLUS kit—Roche Diagnostics) (A-B). None of the analogues were able to protect the primary cardiomyocytes—a fact which confirms that the 16mer DAXXp has the optimal length and sequence for highest cardioprotective effect.
FIG. 7: Comparison of the murine/rat DAXXp with the human DAXXp sequence in terms of anti-apoptotic activity on C2C12 cells, primary cardiomyocytes, and H9c2. The murine DAXXp sequence conjugated to Tat (Tat-mDAXXp—SEQ ID NO: 61) which is identical to the rat DAXXp sequence (see FIG. 1B), was compared to the human construct (Tat-DAXXp) in terms of anti-apoptotic properties against STS (Cell Death detection ELISA^PLUS kit—Roche Diagnostics). The C2C12 cells and the primary cardiomyocytes used were from mice and the H9c2 cells from rat.
FIG. 9: Comparison of FADDp constructs with Tat-DAXXp in terms of anti-apoptotic activity in primary cardiomyocytes and in H9c2 cells. Quantification of DNA normalized to 100% STS. Data shown are the means±SEM, with n≧5. Cells were seeded in 24-well plates and grown overnight. The next day, the cells were incubated with STS alone or with STS+1 μM peptide (in OPTI-MEM®) (OPTI-MEM® is a modification of Eagle's Minimum Essential Media, buffered with HEPES and sodium bicarbonate, and supplemented with hypoxanthine, thymidine, sodium pyruvate, L-glutamine, trace elements, and growth factors) (STS concentration is given in the figure and incubation time is given in FIG. 5). Thereafter, solutions were removed, replaced by complete medium and further incubated for 40 hours. Following the regeneration phase, the cells were lyzed and DNA fragmentation was detected according to manufacturer's instructions (Cell Death detection ELISA^PLUS kit—Roche Diagnostics).
FIG. 10: Comparison of Tat-DAXXp and Tat-FADDp15 alone and in combination in primary cardiomyocytes (A) and in H9c2 cells (B).
(§2) Thereafter, the capacity of these peptides to inhibit apoptosis induced by staurosporine was evaluated. Apoptosis was determined using the Cell Death detection ELISA^PLUS kit (Roche) measuring the DNA fragmentation.
In most publications, anti-apoptotic peptides currently available in the art are administrated 3-4 hours prior to apoptosis induction, which is poorly relevant to a clinical application. For that reason, the protocol used in the present study included administration of the peptides together with the staurosporine. […] This was not observed with CPP alone or with the Tat-scrDAXXp or Tat-ncDAXXp negative controls. […] To better compare the results, the DNA fragmentation (described by the enrichment factor) is related to the staurosporine-treated cells (=100%).

C2C12 cells = test: STS-induced DNA fragmentation (Cell Death detection ELISA PLUS) in C2C12 cells; assay type: cell-based, mouse; details: C2C12; against STS
Description: as §1, with “Thereafter, solutions were removed, replaced by complete medium and further incubated for 40 h.” left out, “Diagnostics). […]” for “Diagnostics).”
as §2
(§3) The anti-apoptotic effects of the peptides were also analyzed in murine NG118-15 (model for neuronal cells) (FIG. 5D), in murine C2C12 (model for muscle cells) (FIG. 5A) and in rat H9c2 (model for cardiac cells) (FIG. 5C). […]

H9c2 cells = test: STS-induced DNA fragmentation (Cell Death detection ELISA PLUS) in H9c2 cells; assay type: cell-based, rat; details: H9c2; against STS
Description: as §1, with “Diagnostics). […]” for “Diagnostics).”
as §2
The anti-apoptotic effects of the peptides were also analyzed in murine NG118-15 (model for neuronal cells) (FIG. 5D), in murine C2C12 (model for muscle cells) (FIG. 5A) and in rat H9c2 (model for cardiac cells) (FIG. 5C). The highest reduction in DNA fragmentation were observed using Bpep-DAXXp in NG118-15 (66% reduction) using Tat-DAXXp in C2C12 (24% reduction) and Pip2b-DAXXp in H9c2 (31% reduction).

[1] = molecular target: T1, intracellular region of the Fas receptor (Homo sapiens, UniProt P25445); test: Binding affinities (Kd) by surface plasmon resonance (Biacore); details: mean of three independent experiments, read-out: Kd ± SD
T1 sequence (P25445 191-335 limits assumed): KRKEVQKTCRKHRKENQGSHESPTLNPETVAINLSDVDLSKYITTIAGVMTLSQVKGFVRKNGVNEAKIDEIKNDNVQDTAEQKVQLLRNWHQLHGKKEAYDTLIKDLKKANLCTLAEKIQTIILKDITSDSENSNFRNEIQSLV
Description: Additionally, the potential interaction of the fragments with the intracellular region of the Fas receptor was cross-validated by measuring the binding affinities (Kd) using the surface plasmon resonance (SPR) technique (Biacore Life Science, Sweden).

NG108-15 cells = test: STS-induced DNA fragmentation (Cell Death detection ELISA PLUS) in NG108-15 cells; assay type: cell-based; details: murine NG118-15 (model for neuronal cells); FIG. 5D
Description: as §1, with “Thereafter, solutions were removed, replaced by complete medium and further incubated for 40 h.” left out
as §2, §3

Row | Kd [1] [mM] | Substance | anti-apoptotic effect compared with Tat-DAXXp (primary cardiomyocytes) | anti-apoptotic effect compared with Tat-DAXXp (C2C12 cells) | anti-apoptotic effect compared with Tat-DAXXp (H9c2 cells) | decrease in apoptosis (primary cardiomyocytes) [%] | reduction in DNA fragmentation (NG108-15 cells) [%]
1 |  | GRKKRRQRRRPPQ-KRFRKEKKQLGSGLLG-NH2 (GRKKRRQRRRPPQKRFRKEKKQLGSGLLG-NH2) [Tat-mDAXXp] | increase in anti-apoptotic effect | increase in anti-apoptotic effect | increase in anti-apoptotic effect |  | 
2 |  | GRKKRRQRRRPPQ-KRKLERVQS-NH2 (GRKKRRQRRRPPQKRKLERVQS-NH2) [Tat-FADDp] | less effective than Tat-DAXXp |  | less effective than Tat-DAXXp | 35 | 
3 |  | GRKKRRQRRRPPQ-VGKRKLERVQSGLDL-NH2 (GRKKRRQRRRPPQVGKRKLERVQSGLDL-NH2) [Tat-FADDp15] | increased anti-apoptotic effect |  | equal | 57 | 
4 | ≥ 6 | KKGRKQSGESLGTPKK-NH2 [scrDAXXp, KKGRKQSGESLGTPKK -NH2] |  |  |  |  | 
5 |  | RXRRBRRXRRBRXB-KKSRKEKKQTGSGPLG-NH2 (R[Ahx]RR[βAla]RR[Ahx]RR[βAla]R[Ahx][βAla]KKSRKEKKQTGSGPLG-NH2; N-terminus assumed; SMILES CC(C)C[C@H](NC(=O)[C@@H]1CCCN1C(=O)CNC(=O)[C@H](CO)NC(=O)CNC(=O)[C@@H](NC(=O)[C@H](CCC(N)=O)NC(=O)[C@H](CCCCN)NC(=O)[C@H](CCCCN)NC(=O)[C@H](CCC(=O)O)NC(=O)[C@H](CCCCN)NC(=O)[C@H](CCCNC(=N)N)NC(=O)[C@H](CO)NC(=O)[C@H](CCCCN)NC(=O)[C@H](CCCCN)NC(=O)CCNC(=O)CCCCCNC(=O)[C@H](CCCNC(=N)N)NC(=O)CCNC(=O)[C@H](CCCNC(=N)N)NC(=O)[C@H](CCCNC(=N)N)NC(=O)CCCCCNC(=O)[C@H](CCCNC(=N)N)NC(=O)[C@H](CCCNC(=N)N)NC(=O)CCNC(=O)[C@H](CCCNC(=N)N)NC(=O)[C@H](CCCNC(=N)N)NC(=O)CCCCCNC(=O)[C@@H](N)CCCNC(=N)N)[C@@H](C)O)C(=O)NCC(N)=O) [Bpep-DAXXp] |  |  |  |  | 66
